In patent publication US20260306490A1, “PIM1 INHIBITOR FOR TREATING MYELOPROLIFERATIVE NEOPLASMS” (Sumitomo Pharma America, Inc., priority 2022, published 2026):

System: human megakaryocyte progenitors (CFU-Mk)
Test: Colony forming cell assay, human megakaryocyte progenitor (CFU-Mk) proliferation
Assay type: cell-based
Conditions: Homo sapiens; single agent; read-out: IC50, total CFU-Mk (megakaryocyte progenitor proliferation)
Experimental: In addition, 5-FU was evaluated at 1.0, 0.1 and 0.01 μg/mL as a positive control for toxicity.
Normal human bone marrow light density cells (lot #0210901), derived from normal bone marrow, (Lonza, Maryland) and qualified at ReachBio, were stored at −152° C. until required for the assay. On the day of the experiment, the cells were thawed rapidly, diluted in 10 mL of Iscove's modified Dulbecco's medium containing 10% fetal bovine serum (IMDM+10% FBS) and washed by centrifugation (approximately 1500 r.p.m. for 10 minutes at room temperature). The supernatant was discarded and the cell pellets were resuspended in a known volume of IMDM+10% FBS. A cell count (3% glacial acetic acid) and viability assessment (trypan blue exclusion test) was performed for the bone marrow sample.
Clonogenic progenitors of human megakaryocyte (CFU-Mk) were assessed in a collagen-based media formulation containing rhIL-3 (10 ng/mL), rhIL-6 (10 ng/mL), and Tpo (50 ng/mL). Clonogenic progenitors of the human erythroid (CFU-E and BFU-E), myeloid (CFU-GM), and megakaryocyte (CFU-Mk) lineages were set up in the media formulations described above. Individually, the test compounds were added to the medium to give the final desired concentrations (10, 3.33, 1, 0.333, 0.1, 0.0333, 0.01 and 0.00333 μM). […] Solvent control cultures (containing no compound but 0.1% DMSO) as well as standard controls (containing no compound and no DMSO) were also initiated. Once introduced into the matrices, the tubes were vortexed to ensure an equal distribution throughout.
Human myeloid and erythroid progenitor assays were initiated at 1.2×10^4 cells per culture (lot #0210921) and the human megakaryocyte assays were initiated at 1.2×10^5 cells per culture (lot #0210921). Following 14 days in culture, erythroid and myeloid colonies were assessed microscopically in situ and scored by trained personnel. The colonies were divided into the following categories based on size and morphology: CFU-E, BFU-E, CFU-GM, and CFU-GEMM. The human megakaryocyte cultures were transferred from the 35 mm dishes to labeled glass slides, fixed with methanol/acetone fixative, and then stained with anti-human CD41 antibody and an alkaline phosphate detection system according to manufacturers' instructions. The colonies were assessed microscopically and scored by trained personnel and divided into the following categories based on size: CFU-Mk (3-20), CFU-Mk (21-49), and CFU-Mk (≥50).
Statistical analysis: The mean±standard deviation of three replicate cultures was calculated for both erythroid and myeloid progenitors. Two-tailed standard t-tests were performed to assess if there was a difference in the number of colonies generated between solvent control and treated cultures. Due to the potential subjectivity of colony enumeration, a p value of less than 0.01 is deemed significant. To calculate the concentration of 50% inhibition of colony growth (IC50) for each compound, a dose response curve was generated plotting the log of the compound concentration versus the percentage of control colony growth using GraphPad Prism 9 software.
Other than the test compounds being combined, the only change from the method in Example 1 was a 0.2% DMSO solvent control instead of 0.1% DMSO. The results are provided in FIGS. 2A-4C (FIGS. 2A-2C are human megakaryocytes (CFU-MK), FIGS. 3A-3C are human erythroid (CFU-E, BFU-E), and FIGS. 4A-4C are human granulocyte-monocyte (CFU-GM).

`CC(C)(O)[C@H]1CC[C@H](Nc2ccc3ncc(-c4cccc(C(F)(F)F)c4)n3n2)CC1` [Compound (1)] was tested. Which IC50 did it give?
The IC50 was 1560 nM.
